{
  "source": "patent US12466839B2",
  "about": "“Allosteric AKT inhibitors for use in the treatment of Hereditary Hemorrhagic Telangiectasia” (VADERIS THERAPEUTICS AG, priority 2020, dated 2025)",
  "key": {"[1]": {"system": "angiogenesis in C57Bl/6J mice retinas", "test": "Neonatal retinal angiogenesis model in wild-type mice", "format": "in vivo, mouse (C57Bl/6J)", "details": "for anti-angiogenic properties (overall conclusion): mouse retinas", "excerpt": "(§1) For the retinal vascular network, quantification of the number of AV shunts per mouse was done manually. […] A custom own-lab made macro allowed automatic processing of the images, using the same processing and quantification parameters. Briefly, the brightness of the images was enhanced by modifying the pixel extreme values, which depends on the specific image histogram content. A Gaussian filter was applied to reduce the intensity in homogeneities. The filter order depended on the image resolution. Next, the threshold step was computed, based on a global threshold technique such as Otsu's method or Li's method, resulting in binary image. A median filter was then applied to eliminate potential local irregularities, which could cause false branching point detection. From the binary images, the vascular density was quantified (calculated as the ratio of pixels associated with the vessels divided by the total number of pixels in the image). For the other parameters, a skeleton of the images was first computed using ImageJ, then the total vascular length was quantified using the Measure Skeleton Length plug-in from ImageJ. The number of branch points was extracted from the Analyze Skeleton plug-in of ImageJ. All results were transferred to Microsoft Office Excel software and automatically rearranged using a lab custom-made program. As all images generated at each step of the processing were saved, a visual control was made to ensure that there were no aberrant results.\n(§2) Statistical analysis was performed with Prism 7 software (GraphPad). For most of the experiments, 1-way ANOVA was used for multiple comparisons. Results are expressed as mean±SEM. For post hoc pairwise, the Dunnett's test was used. A value of *P<0.05, **P<0.01, ***P<0.001 or ****P<0.0001 denotes statistical significance. An in-group variation of around 15% in parameters related to blood vessel architecture changes has been previously observed by the inventors, therefore a difference between controls and mutant mice of around 20-30% was anticipated. It was therefore expected that a group of 8 mice per condition would reveal statistical differences.\n(§3) Eyes were fixed in 4% paraformaldehyde (PFA) in PBS at room temperature for 10 min, retinas were dissected, post-fixed in 4% PFA in PBS at 4° C. overnight then processed for immunostaining. Retinas were permeabilized in PBS, 1% BSA and 0.5% Triton X-100 at 4° C. overnight, rinsed in PBS, washed twice in PBlec (PBS, pH 6.8, 1% Triton-X-100, 0.1 mM CaCl2, 0.1 mM MgCl2, 0.1 mM MnCl2), and then incubated in biotinylated Griffonia simplicifolia lectin (isolectin B4) (B-1205, Vector Laboratories, 1:50) in PBlec at 4° C. overnight. After 5 washes in PBS, samples were incubated with streptavidin Cy-3 (PA43001, Sigma-Aldrich, 1:100) and with a-SMA (clone 1A4) (F3777, Sigma-Aldrich) conjugated with FITC diluted in PBS, 0.5% BSA, and 0.25% X-100 at 4° C. for 2 h. After washing, flat whole-mount retinas were mounted in DAKO medium (S3023, Dako). Complete high-resolution 3-dimensional rendering of whole-mount retinas was acquired using Laser Scanning Microscope SP5 or SP8 (Leica)."}, "[2]": {"test": "Pup lethality / adverse effects in Eng-iKO mice", "format": "in vivo", "protocol": "The Eng Flox/flox; cdh5-CreERT2 were injected with tamoxifen (50 μg) at P2 to induce nearly […] The same volume of vehicle was injected serving as control animals. Mice were then euthanized at P7 and retinas processed for immunofluorescence staining as described (Lebrin et al., as above).\n(§4) The same volume of vehicle was injected serving as control animals. Mice were then euthanized at P7 and retinas processed for immunofluorescence staining as described (Lebrin et al., as above)."}, "[3]": {"system": "nosebleeds in HHT patients", "details": "HHT patients (Lebrin et al.); cited from earlier work"}, "AKT2": {"target": "AKT2 (Homo sapiens, UniProt P31751)", "sequence (P31751 whole entry)": "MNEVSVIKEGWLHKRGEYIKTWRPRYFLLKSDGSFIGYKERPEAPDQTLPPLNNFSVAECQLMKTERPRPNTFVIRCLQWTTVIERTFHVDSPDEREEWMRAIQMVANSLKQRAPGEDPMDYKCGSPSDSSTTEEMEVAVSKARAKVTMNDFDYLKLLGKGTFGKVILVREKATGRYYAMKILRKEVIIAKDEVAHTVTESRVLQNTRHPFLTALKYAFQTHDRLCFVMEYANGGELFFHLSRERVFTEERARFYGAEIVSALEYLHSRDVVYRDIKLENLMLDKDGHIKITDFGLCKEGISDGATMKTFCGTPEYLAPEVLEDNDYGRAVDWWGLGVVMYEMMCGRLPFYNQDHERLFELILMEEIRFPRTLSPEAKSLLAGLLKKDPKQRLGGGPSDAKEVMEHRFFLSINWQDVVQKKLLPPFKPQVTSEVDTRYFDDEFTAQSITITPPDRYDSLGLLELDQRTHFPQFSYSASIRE", "test": "Co-crystal structure in complex with AKT2", "format": "binding", "details": "2.32 Å co-crystal structure with AKT2"}, "[4]": {"test": "Pharmacokinetics (PK) profile in neonate mice", "format": "in vivo, mouse", "protocol": "Terminal blood samples collected at 24 h and 48 h post injections were collected from each mouse under isoflurane anaesthesia for the preparation of plasma. 4 neonate mice were used per time point in the study. Blood was collected into EDTA coated microvettes (Sartsed) for plasma preparation. Blood was centrifuged at 2700×g for 10 minutes and approximately 30 to 40 μl plasma was removed and aliquoted into polypropylene tubes (two aliquots per animal). Plasma samples were stored at −80° C. until bioanalysis. VAD044 compound levels in plasma samples was determined by LC-MS/MS."}, "[5]": {"test": "Safety/toxicity profile in wild-type neonatal mice", "excerpt": "C57Bl/6J pregnant females were provided by Janvier Labs. EngFlox/flox mice (Mahmoud et al., (2010), “Pathogenesis of arteriovenous malformations in the absence of endoglin”, Circulation Research. https://doi.org/10.1161/[…].109.211037) were crossed with Cdh5(PAC)-CreERT2 (12) to generate endothelial specific inducible Eng knockout. Animal housing and procedures were in accordance with the Dutch Government guidelines and directive 2010/63/EU of the European Parliament. All efforts were made to minimize the number of animals used and their suffering. The institutional Committee for Animal Welfare of Leiden University Medical Center (project number AVD1160020171628) approved all protocols. Male and female mice were used during the first postnatal week to study retinal angiogenesis.\nRetinas were processed for immunofluorescence staining as described (Lebrin et al., (2010), “Thalidomide stimulates vessel maturation and reduces epistaxis in individuals with hereditary hemorrhagic telangiectasia”, Nature Medicine. https://doi.org/10.1038/nm.2131)."}, "[6]": {"system": "AVM formation in Eng-iKO mice", "test": "Prevention of AVM formation in Eng-iKO mice (retinal vascular network)", "format": "in vivo, mouse", "protocol": "The Eng Flox/flox; cdh5-CreERT2 were injected with tamoxifen (50 μg) at P2 to […] once at P3, P4, P5 and P6. The same volume of vehicle was injected serving as control animals. Mice were then euthanized at P7 and retinas processed for immunofluorescence staining as described (Lebrin et al., as above).\nas §4, §1, §2, §3"}, "[7]": {"system": "AKT kinase in Pi3Kα or PTEN mutant cells lines (e.g. MCF7, BT474 or LnCAP)", "details": "similar cell line; cited from earlier work"}, "[8]": {"details": "once at P4, 5 to 25 mg·kg-1, i.p"}},
  "note": "“Also recorded” adds a separate entry of the source.",
  "data": [
    {"smiles": "Cn1ncc(Cl)c1-c1cc(C(=O)N[C@H](CN)Cc2ccc(F)c(F)c2)oc1Cl", "note": "[Uprosertib]", "values": [
      {"measurement": "anti-angiogenic properties (overall conclusion)", "setting": "[1]", "value": "potent inhibitor of angiogenesis; also recorded: potent antiangiogenic properties"},
      {"measurement": "number of branch points", "setting": "[1]; [8]", "value": "marked decrease"},
      {"measurement": "radial expansion", "setting": "[1]; [8]", "value": "slight decrease"},
      {"measurement": "vascular area", "setting": "[1]; [8]", "value": "marked decrease"},
      {"measurement": "pups mortality", "setting": "[2]; 5 mg·kg−1 injected twice at P3 and P6", "value": "high levels of pups mortality"},
      {"measurement": "pup death", "setting": "[2]; Eng-iKO mice, 1 to 5 mg·kg−1 bodyweight", "value": "death of the majority of the pups"},
      {"measurement": "pup death", "setting": "[2]; Eng-iKO mice, two injections at P3 and P5", "value": "death of the majority of the pups"}
    ]},
    {"smiles": "O=C1CCC(N2C(=O)c3ccccc3C2=O)C(=O)N1", "note": "(centres unmarked) [Thalidomide]", "values": [
      {"measurement": "severity and frequency of nosebleeds", "setting": "[3]", "value": "reduce the severity and frequency of nosebleeds"}
    ]},
    {"smiles": "CCCN1C(=O)COc2nc(-c3ccc([C@]4(N)C[C@](C)(O)C4)cc3)c(-c3ccccc3)cc21", "note": "[Compound 6]", "values": [
      {"measurement": "binding site in co-crystal structure", "setting": "AKT2", "value": "binds in an allosteric binding pocket"}
    ]},
    {"smiles": "CCN1C(=O)COc2nc(-c3ccc([C@]4(N)C[C@@H](O)C4)cc3)c(-c3ccccc3)cc21", "note": "[VAD044 free base, 6-(4-(1-amino-3-hydroxycyclobutyl)phenyl)-1-ethyl-7-phenyl-1H-pyrido[2,3-b][1,4]oxazin-2(3H)-one]", "values": [
      {"measurement": "Cavg (effective concentration)", "setting": "[4]", "value": 22.9, "unit": "ng/mL"}
    ]},
    {"smiles": "CCCCCCCCCCCCCCCCCCOP(=O)([O-])OC1CC[N+](C)(C)CC1", "note": "[Perifosine]", "values": [
      {"measurement": "anti-angiogenic properties (overall conclusion)", "setting": "[1]", "value": "weak anti-angiogenic properties"},
      {"measurement": "vascular radial expansion", "setting": "[1]; once at P4, 100 mg·kg-1", "value": "reduced vascular radial expansion"},
      {"measurement": "effect on angiogenesis", "setting": "[1]; once at P4, 5 to 10 mg·kg-1", "value": "did not affect angiogenesis"},
      {"measurement": "number of branch points and vascular area of the retinal vascular bed", "setting": "[1]; once at P4, 25 to 100 mg·kg-1", "value": "slight reduction"},
      {"measurement": "weight gain", "setting": "[5]; injected once at P4, 50 mg·kg-1", "value": "delayed weight gain"},
      {"measurement": "pup mortality", "setting": "[5]; injected once at P4, 100 mg·kg-1", "value": "induced important pup mortality"},
      {"measurement": "adverse effects", "setting": "[5]; injected once at P4, 5 to 25 mg·kg-1", "value": "No adverse effects"},
      {"measurement": "pup death", "setting": "[2]; daily intraperitoneal administration at 25 mg·kg-1", "value": "resulted in pup death"},
      {"measurement": "prevention of AVM formation", "setting": "[6]; Eng-iKO mice, 25 or 50 mg·kg-1 i.p at P3 and P5, or 10 mg·kg-1 daily P3 to P6", "value": "unable to prevent AVM formation"},
      {"measurement": "inhibition of angiogenesis in Eng-iKO mice", "setting": "[6]; Eng-iKO mice, doses and injection schemes tested", "value": "did not inhibit angiogenesis"},
      {"measurement": "effects in shunt formation", "setting": "[6]; HHT1 mouse model, 25 and 50 mg·kg-1", "value": "no significant effects"},
      {"measurement": "efficacy on shunt formation", "setting": "[6]; injected every day at 10 mg·kg-1", "value": "trend for efficacy was observed but statistical significance was not achieved"},
      {"measurement": "cellular inhibitory activity on AKT", "setting": "[7]", "value": "uM range"}
    ]}
  ]
}
